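Step 1: Grow cells in 96-well plates. Step 2: Expose to compound for 48 hours at 5 concentrations. Step 3: Interpolate endpoints linearly; if unreached, use highest concentration. At the GI50, growth is halved. TGI denotes the concentration required for complete inhibition of growth.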
How the values were obtained:
Assay in all cases: DTP human tumour cell line panel, 48 h
786-0 renal = system: 786-0 renal
A498 renal = system: A498 renal
A549 NSCLC = system: A549 NSCLC
ACHN renal = system: ACHN renal
BT-549 breast = system: BT-549 breast
CAKI-1 renal = system: CAKI-1 renal
CCRF-CEM leukemia = system: CCRF-CEM leukemia
COLO 205 colon = system: COLO 205 colon
DU-145 prostate = system: DU-145 prostate
EKVX NSCLC = system: EKVX NSCLC
HCC-2998 colon = system: HCC-2998 colon
HCT-116 colon = system: HCT-116 colon
HCT-15 colon = system: HCT-15 colon
HL-60(TB) leukemia = system: HL-60(TB) leukemia
HOP-62 NSCLC = system: HOP-62 NSCLC
HOP-92 NSCLC = system: HOP-92 NSCLC
HS 578T breast = system: HS 578T breast
HT29 colon = system: HT29 colon
IGROV1 ovarian = system: IGROV1 ovarian
K-562 leukemia = system: K-562 leukemia
KM12 colon = system: KM12 colon
LOX IMVI melanoma = system: LOX IMVI melanoma
M14 melanoma = system: M14 melanoma
MALME-3M melanoma = system: MALME-3M melanoma
MCF7 breast = system: MCF7 breast
MDA-MB-231 breast = system: MDA-MB-231 breast
MDA-MB-468 breast = system: MDA-MB-468 breast
MOLT-4 leukemia = system: MOLT-4 leukemia
NCI-H226 lung = system: NCI-H226 lung
NCI-H23 lung = system: NCI-H23 lung
NCI-H460 lung = system: NCI-H460 lung
NCI-H522 lung = system: NCI-H522 lung
NCI/ADR-RES ovarian = system: NCI/ADR-RES ovarian
OVCAR-3 ovarian = system: OVCAR-3 ovarian
OVCAR-4 ovarian = system: OVCAR-4 ovarian
OVCAR-5 ovarian = system: OVCAR-5 ovarian
OVCAR-8 ovarian = system: OVCAR-8 ovarian
PC-3 prostate = system: PC-3 prostate
RPMI-8226 leukemia = system: RPMI-8226 leukemia
RXF 393 renal = system: RXF 393 renal
SF-268 CNS = system: SF-268 CNS
SF-295 CNS = system: SF-295 CNS
SF-539 CNS = system: SF-539 CNS
SK-MEL-2 melanoma = system: SK-MEL-2 melanoma
SK-MEL-28 melanoma = system: SK-MEL-28 melanoma
SK-MEL-5 melanoma = system: SK-MEL-5 melanoma
SK-OV-3 ovarian = system: SK-OV-3 ovarian
SN12C renal = system: SN12C renal
SNB-19 CNS = system: SNB-19 CNS
SNB-75 CNS = system: SNB-75 CNS
SR leukemia = system: SR leukemia
SW-620 colon = system: SW-620 colon
T-47D breast = system: T-47D breast
TK-10 renal = system: TK-10 renal
U251 CNS = system: U251 CNS
UACC-257 melanoma = system: UACC-257 melanoma
UACC-62 melanoma = system: UACC-62 melanoma
UO-31 renal = system: UO-31 renal

COc1ccc(CCC2NCCc3c(Br)c4c(c(OC)c32)OCO4)cc1 (stereo unspecified)
GI50 (786-0 renal): 9.75 µM | TGI (786-0 renal): > 55.8 µM | GI50 (A498 renal): 29 µM | TGI (A498 renal): > 55.8 µM | GI50 (A549 NSCLC): 4.01 µM | TGI (A549 NSCLC): > 55.8 µM | GI50 (ACHN renal): 8.23 µM | TGI (ACHN renal): > 55.8 µM | GI50 (BT-549 breast): 7.45 µM | TGI (BT-549 breast): 25.5 µM | GI50 (CAKI-1 renal): 3.08 µM | TGI (CAKI-1 renal): > 55.8 µM | GI50 (CCRF-CEM leukemia): 6.76 µM | TGI (CCRF-CEM leukemia): 37.3 µM | GI50 (COLO 205 colon): 2.84 µM | TGI (COLO 205 colon): 11.8 µM | GI50 (DU-145 prostate): 15.9 µM | TGI (DU-145 prostate): > 55.8 µM | GI50 (EKVX NSCLC): 11.5 µM | TGI (EKVX NSCLC): > 55.8 µM | GI50 (HCC-2998 colon): 6.82 µM | TGI (HCC-2998 colon): 15.5 µM | GI50 (HCT-116 colon): 1.84 µM | TGI (HCT-116 colon): > 55.8 µM | GI50 (HCT-15 colon): 3.53 µM | TGI (HCT-15 colon): > 55.8 µM | GI50 (HL-60(TB) leukemia): 2.44 µM | TGI (HL-60(TB) leukemia): 17.7 µM | GI50 (HOP-62 NSCLC): 2.68 µM | TGI (HOP-62 NSCLC): > 55.8 µM | GI50 (HOP-92 NSCLC): 2.69 µM | TGI (HOP-92 NSCLC): 18.2 µM | GI50 (HS 578T breast): 6.63 µM | TGI (HS 578T breast): 28.3 µM | GI50 (HT29 colon): 1.77 µM | TGI (HT29 colon): 8.33 µM | GI50 (IGROV1 ovarian): 3.92 µM | TGI (IGROV1 ovarian): 44.6 µM | GI50 (K-562 leukemia): 1.84 µM | TGI (K-562 leukemia): > 55.8 µM | GI50 (KM12 colon): 2.82 µM | TGI (KM12 colon): > 55.8 µM | GI50 (LOX IMVI melanoma): 6.31 µM | TGI (LOX IMVI melanoma): 14.5 µM | GI50 (M14 melanoma): 2.05 µM | TGI (M14 melanoma): > 55.8 µM | GI50 (MALME-3M melanoma): 4.98 µM | TGI (MALME-3M melanoma): 13.5 µM | GI50 (MCF7 breast): 7.13 µM | TGI (MCF7 breast): 26.6 µM | GI50 (MDA-MB-231 breast): 2.08 µM | TGI (MDA-MB-231 breast): 15.5 µM | GI50 (MDA-MB-468 breast): 4.45 µM | TGI (MDA-MB-468 breast): 15.9 µM | GI50 (MOLT-4 leukemia): 4.46 µM | TGI (MOLT-4 leukemia): > 55.8 µM | GI50 (NCI-H226 lung): 6.71 µM | TGI (NCI-H226 lung): > 55.8 µM | GI50 (NCI-H23 lung): 6.79 µM | TGI (NCI-H23 lung): 38.1 µM | GI50 (NCI-H460 lung): 2.77 µM | TGI (NCI-H460 lung): 21.7 µM | GI50 (NCI-H522 lung): 1.72 µM | TGI (NCI-H522 lung): 10.1 µM | GI50 (NCI/ADR-RES ovarian): 6.99 µM | TGI (NCI/ADR-RES ovarian): 28.4 µM | GI50 (OVCAR-3 ovarian): 3.37 µM | TGI (OVCAR-3 ovarian): 29.8 µM | GI50 (OVCAR-4 ovarian): 12.6 µM | TGI (OVCAR-4 ovarian): > 55.8 µM | GI50 (OVCAR-5 ovarian): 3.28 µM | TGI (OVCAR-5 ovarian): 36.8 µM | GI50 (OVCAR-8 ovarian): 11.1 µM | TGI (OVCAR-8 ovarian): > 55.8 µM | GI50 (PC-3 prostate): 6.16 µM | TGI (PC-3 prostate): > 55.8 µM | GI50 (RPMI-8226 leukemia): 2.23 µM | TGI (RPMI-8226 leukemia): 15.9 µM | GI50 (RXF 393 renal): 7.57 µM | TGI (RXF 393 renal): 39.4 µM | GI50 (SF-268 CNS): 12.5 µM | TGI (SF-268 CNS): > 55.8 µM | GI50 (SF-295 CNS): 2.36 µM | TGI (SF-295 CNS): 41.6 µM | GI50 (SF-539 CNS): 6 µM | TGI (SF-539 CNS): 14.3 µM | GI50 (SK-MEL-2 melanoma): 2.99 µM | TGI (SK-MEL-2 melanoma): 16.5 µM | GI50 (SK-MEL-28 melanoma): 2.5 µM | TGI (SK-MEL-28 melanoma): 12.6 µM | GI50 (SK-MEL-5 melanoma): 3.64 µM | TGI (SK-MEL-5 melanoma): 11.9 µM | GI50 (SK-OV-3 ovarian): 10.5 µM | TGI (SK-OV-3 ovarian): > 55.8 µM | GI50 (SN12C renal): 5.1 µM | TGI (SN12C renal): 42.7 µM | GI50 (SNB-19 CNS): 11.1 µM | TGI (SNB-19 CNS): > 55.8 µM | GI50 (SNB-75 CNS): 7.93 µM | TGI (SNB-75 CNS): 35.3 µM | GI50 (SR leukemia): 2.33 µM | TGI (SR leukemia): 31.2 µM | GI50 (SW-620 colon): 1.76 µM | TGI (SW-620 colon): 9.77 µM | GI50 (T-47D breast): 4.78 µM | TGI (T-47D breast): 27.3 µM | GI50 (TK-10 renal): 11.8 µM | TGI (TK-10 renal): > 55.8 µM | GI50 (U251 CNS): 10.7 µM | TGI (U251 CNS): > 55.8 µM | GI50 (UACC-257 melanoma): 9.2 µM | TGI (UACC-257 melanoma): > 55.8 µM | GI50 (UACC-62 melanoma): 1.34 µM | TGI (UACC-62 melanoma): 3.98 µM | GI50 (UO-31 renal): 7.85 µM | TGI (UO-31 renal): > 55.8 µM
